From DBAASP
Values after ≈ are worked out from the molar mass of the structure shown. Values joined by “and” are separate entries in the source; they are usually repeats but may differ in a detail not shown here. Equal entries are not always repeated. One block for each compound: values may come before it.

Tests used:
Assay in all cases: ≥ marks a high value that may be exact or a test limit, other limits are often not marked, values filed in µg/mL are converted to µM
[1] = test system: Aeromonas hydrophila
[2] = test system: Escherichia coli MG1655
[3] = test system: Vibrio harveyi
[4] = test system: Erwinia amylovora PMV 6076
[5] = test system: Pseudomonas syringae pv. syringae EPS 94
[6] = test system: Acinetobacter baumannii ATCC 19606
[7] = test system: Candida albicans ATCC 90028
[8] = test system: Cryptococcus neoformans ATCC 208821
[9] = test system: Escherichia coli ATCC 25922
[10] = test system: Klebsiella pneumoniae ATCC 700603
[11] = test system: Pseudomonas aeruginosa ATCC 27853
[12] = test system: Staphylococcus aureus ATCC 43300
[13] = test system: Staphylococcus aureus ATCC BAA-1556
[14] = test system: Cronobacter sakazakii DPC 6440
[15] = test system: Listeria monocytogenes LO28

SMILES: CC[C@H](C)[C@H](NC(=O)[C@H](C)NC(=O)[C@H](CCCN=C(N)N)NC(=O)[C@H](Cc1cnc[nH]1)NC(=O)[C@@H](NC(=O)[C@H](C)NC(=O)[C@H](CCCN=C(N)N)NC(=O)[C@@H](NC(=O)CNC(=O)[C@H](C)NC(=O)[C@H](CO)NC(=O)[C@@H](NC(=O)[C@H](Cc1c[nH]c2ccccc12)NC(=O)CNC(=O)[C@@H](NC(=O)[C@@H](NC(=O)[C@H](Cc1cnc[nH]1)NC(=O)[C@H](Cc1cnc[nH]1)NC(=O)[C@@H](NC(=O)[C@@H](N)Cc1ccccc1)[C@@H](C)CC)[C@@H](C)CC)[C@@H](C)CC)[C@@H](C)CC)C(C)C)[C@@H](C)CC)C(=O)N[C@@H](Cc1cnc[nH]1)C(N)=O [FIHHIIGWISAGVRAIHRAIH]
- MIC [1]: ≥ 128 µM
- MIC [2]: 8 µM and 16 µM
- MIC [3]: ≥ 64 µM

SMILES: CC[C@H](C)[C@H](NC(=O)[C@H](C)NC(=O)[C@H](CCCN=C(N)N)NC(=O)[C@H](Cc1cnc[nH]1)NC(=O)[C@@H](NC(=O)[C@H](C)NC(=O)[C@H](CCCN=C(N)N)NC(=O)[C@@H](NC(=O)CNC(=O)[C@H](Cc1cnc[nH]1)NC(=O)[C@H](CO)NC(=O)[C@@H](NC(=O)[C@H](Cc1c[nH]c2ccccc12)NC(=O)CNC(=O)[C@@H](NC(=O)[C@@H](NC(=O)[C@H](Cc1cnc[nH]1)NC(=O)[C@H](Cc1cnc[nH]1)NC(=O)[C@@H](NC(=O)[C@@H](N)Cc1ccccc1)[C@@H](C)CC)[C@@H](C)CC)[C@@H](C)CC)[C@@H](C)CC)C(C)C)[C@@H](C)CC)C(=O)N[C@@H](C)C(N)=O [FIHHIIGWISHGVRAIHRAIA]
- MIC [1]: 16 µM (≈ 38.5 µg/mL)
- MIC [3]: 16 µM (≈ 38.5 µg/mL)

SMILES: CC[C@H](C)[C@H](NC(=O)[C@H](CCCCN)NC(=O)[C@H](CCCCN)NC(=O)[C@H](Cc1ccccc1)NC(=O)[C@H](CC(C)C)NC(=O)[C@H](CCCCN)NC(=O)[C@H](CCCCN)NC(=O)CN)C(=O)N[C@@H](CC(C)C)C(=O)N[C@@H](CCCCN)C(=O)N[C@@H](Cc1ccc(O)cc1)C(=O)N[C@@H](CC(C)C)C(=O)N[C@@H](C)C(=O)NCC(=O)N1CCC[C@H]1C(=O)N[C@@H](C)C(=O)N[C@@H](CCCCN)C(=O)N[C@@H](Cc1ccccc1)C(=O)N[C@@H](CC(C)C)C(=O)N[C@@H](Cc1cnc[nH]1)C(=O)N[C@@H](CO)C(=O)N[C@@H](C)C(=O)N[C@@H](CCCCN)C(=O)O [GKKLFKKILKYLAGPAKFLHSAK]
- MIC [4]: 1.77 µM (≈ 4.57 µg/mL)
- MIC [5]: 3.54 µM (≈ 9.15 µg/mL)

SMILES: CC(C)C[C@H](NC(=O)CNC(=O)[C@H](CO)NC(=O)CNC(=O)[C@H](CCCN=C(N)N)NC(=O)[C@H](CCCN=C(N)N)NC(=O)CN)C(=O)NCC(=O)N[C@@H](CCCN=C(N)N)C(=O)N[C@@H](CO)C(=O)N[C@@H](CO)C(=O)N[C@@H](CO)C(=O)N[C@@H](CCCN=C(N)N)C(=O)NCC(=O)N[C@@H](CCC(N)=O)C(=O)N[C@@H](CCCN=C(N)N)C(=O)NCC(=O)N[C@@H](CO)C(=O)NCC(=O)N[C@@H](CO)C(=O)NCC(=O)N[C@@H](CCCN=C(N)N)C(=O)O [GRRGSGLGRSSSRGQRGSGSGR]
- MIC [6]: > 14.7 µM
- MIC [7]: 14.7 µM (≈ 32 µg/mL)
- MIC [8]: 14.7 µM (≈ 32 µg/mL)
- MIC [9]: > 14.7 µM
- MIC [10]: > 14.7 µM
- MIC [11]: > 14.7 µM
- MIC [12]: > 14.7 µM

SMILES: C[C@H](NC(=O)[C@@H](NC(=O)[C@H](CCCN=C(N)N)NC(=O)[C@H](CO)NC(=O)CNC(=O)[C@H](CCCN=C(N)N)NC(=O)[C@H](CCC(N)=O)NC(=O)[C@@H](NC(=O)[C@H](CO)NC(=O)[C@H](CCC(N)=O)NC(=O)CNC(=O)[C@H](Cc1cnc[nH]1)NC(=O)CNC(=O)[C@H](CO)NC(=O)[C@H](Cc1cnc[nH]1)NC(=O)[C@H](C)NC(=O)[C@@H](N)Cc1cnc[nH]1)[C@@H](C)O)[C@@H](C)O)C(=O)NCC(=O)N[C@@H](CCCN=C(N)N)C(=O)O [HAHSGHGQSTQRGSRTAGR]
- MIC [6]: > 16.1 µM
- MIC [7]: 16.1 µM (≈ 32 µg/mL)
- MIC [8]: 16.1 µM (≈ 32 µg/mL)
- MIC [9]: > 16.1 µM
- MIC [10]: > 16.1 µM
- MIC [11]: > 16.1 µM
- MIC [12]: > 16.1 µM

SMILES: CC(C)C[C@H](NC(=O)[C@H](CC(C)C)NC(=O)[C@H](Cc1c[nH]c2ccccc12)NC(=O)[C@H](CCCCN)NC(=O)[C@H](CC(C)C)NC(=O)[C@H](CC(C)C)NC(=O)[C@H](CCCCN)NC(=O)[C@@H](N)CCCCN)C(N)=O [KKLLKWLL]
- MIC [13]: ≥ 100 µM

Next, values leading:

- MIC [14]: ≥ 156 µM
- MIC [15]: ≥ 78.1 µM
SMILES: CC[C@H](C)[C@H](NC(=O)[C@@H](NC(=O)[C@H](CCCCN)NC(=O)[C@@H](N)[C@@H](C)O)C(C)C)C(=O)N1CCC[C@H]1C(=O)N[C@@H](Cc1ccc(O)cc1)C(=O)N[C@H](C(=O)N[C@@H](CCCN=C(N)N)C(=O)N[C@@H](Cc1ccc(O)cc1)C(=O)N[C@@H](CC(C)C)C(=O)O)C(C)C [TKVIPYVRYL]

- MIC [14]: ≥ 625 µM
- MIC [15]: ≥ 156 µM
SMILES: CC[C@H](C)[C@H](NC(=O)[C@@H](N)Cc1c[nH]c2ccccc12)C(=O)N[C@@H](CCC(N)=O)C(=O)N1CCC[C@H]1C(=O)N[C@@H](C)C(=O)N[C@H](C(=O)N[C@@H](C)C(=O)N[C@H](C(=O)N[C@H](C(=O)N1CCC[C@H]1C(=O)N[C@@H](Cc1ccc(O)cc1)C(=O)N[C@H](C(=O)N[C@@H](CCCN=C(N)N)C(=O)N[C@@H](Cc1ccc(O)cc1)C(=O)N[C@@H](CC(C)C)C(=O)O)C(C)C)[C@@H](C)CC)C(C)C)[C@@H](C)O [WIQPATAVIPYVRYL]

- MIC [14]: ≥ 312 µM
- MIC [15]: ≥ 39.1 µM
SMILES: CC[C@H](C)[C@H](NC(=O)[C@@H](N)Cc1c[nH]c2ccccc12)C(=O)N[C@@H](CCC(N)=O)C(=O)N1CCC[C@H]1C(=O)N[C@@H](CCCCN)C(=O)N[C@H](C(=O)N[C@@H](C)C(=O)N[C@H](C(=O)N[C@H](C(=O)N1CCC[C@H]1C(=O)N[C@@H](Cc1ccc(O)cc1)C(=O)N[C@H](C(=O)N[C@@H](CCCN=C(N)N)C(=O)N[C@@H](Cc1ccc(O)cc1)C(=O)N[C@@H](CC(C)C)C(=O)O)C(C)C)[C@@H](C)CC)C(C)C)[C@@H](C)O [WIQPKTAVIPYVRYL]

- MIC [14]: ≥ 78.1 µM
- MIC [15]: 19.5 µM (≈ 35.4 µg/mL)
SMILES: CC[C@H](C)[C@H](NC(=O)[C@@H](N)Cc1c[nH]c2ccccc12)C(=O)N[C@@H](CCC(N)=O)C(=O)N1CCC[C@H]1C(=O)N[C@@H](CCCCN)C(=O)N[C@H](C(=O)N[C@@H](CCCCN)C(=O)N[C@H](C(=O)N[C@H](C(=O)N1CCC[C@H]1C(=O)N[C@@H](Cc1ccc(O)cc1)C(=O)N[C@H](C(=O)N[C@@H](CCCN=C(N)N)C(=O)N[C@@H](C)C(=O)N[C@@H](CC(C)C)C(=O)O)C(C)C)[C@@H](C)CC)C(C)C)[C@@H](C)O [WIQPKTKVIPYVRAL]

- MIC [13]: ≥ 100 µM
SMILES: CC[C@H](C)[C@H](NC(=O)[C@@H](N)Cc1c[nH]c2ccccc12)C(=O)N[C@@H](CCCN=C(N)N)C(=O)N[C@@H](Cc1c[nH]c2ccccc12)C(=O)N[C@@H](CC(C)C)C(N)=O [WIRWL]

- MIC [13]: 6.25 µM (≈ 9.02 µg/mL)
SMILES: CC(C)C[C@H](NC(=O)[C@H](Cc1c[nH]c2ccccc12)NC(=O)[C@H](Cc1c[nH]c2ccccc12)NC(=O)[C@H](CC(C)C)NC(=O)[C@H](Cc1c[nH]c2ccccc12)NC(=O)[C@H](Cc1c[nH]c2ccccc12)NC(=O)[C@H](CC(C)C)NC(=O)[C@H](CCCN=C(N)N)NC(=O)[C@@H](N)Cc1c[nH]c2ccccc12)C(N)=O [WRLWWLWWL]

- MIC [13]: 25 µM (≈ 31.8 µg/mL)
SMILES: CC[C@H](C)[C@H](NC(=O)[C@H](Cc1c[nH]c2ccccc12)NC(=O)[C@H](CCCN=C(N)N)NC(=O)[C@H](CCCN=C(N)N)NC(=O)[C@@H](N)Cc1c[nH]c2ccccc12)C(=O)N[C@@H](CCCN=C(N)N)C(=O)N[C@@H](Cc1c[nH]c2ccccc12)C(=O)N[C@@H](CC(C)C)C(N)=O [WRRWIRWL]
